According to patent publication US11214803B2, “Modulators of YAP1 expression” (Ionis Pharmaceuticals, Inc., priority 2019, dated 2022):
Strand notation (5' to 3'): a small letter for the sugar, then the base; units joined by * are phosphorothioate-linked, units joined directly phosphodiester-linked; [ ] holds rarer units or linkages, { } end groups; capitals alone tell only the bases. k = constrained ethyl (cEt); [5mC] = 5-methylcytosine; d = 2'-deoxy (DNA)

test system: Yap1 mRNA; experiment: Antisense inhibition of human Yap1 in A-431 cells by cEt gapmers, single dose (Example 3, RTS36584); type: cell-based; details: Table 8; A-431 cells, 5,000 cells per well, free uptake, 2,000 nM, approximately 48 hours; RTS36584; normalized to RIBOGREEN; Yap1 mRNA relative to untreated control cells
Experimental: Modified oligonucleotides were designed to target a Yap1 nucleic acid and were tested for their effect on Yap1 mRNA level in vitro. The modified oligonucleotides were tested in a series of experiments that had similar culture conditions. Cultured A-431 cells at a density of 5,000 cells per well were treated using free uptake with 2,000 nM of modified oligonucleotide. After a treatment period of approximately 48 hours, RNA was isolated from the cells and Yap1 mRNA levels were measured by quantitative real-time RTPCR. Human primer probe set RTS36584 (forward sequence […], designated herein as SEQ ID NO.: 14; reverse sequence […], designated herein as SEQ ID NO.: 15; probe sequence […], designated herein as SEQ ID NO.: 16) was used to measure mRNA levels. Yap1 mRNA levels were normalized to total RNA content, as measured by RIBOGREEN®. Results are presented in the tables below as percent control of the amount of Yap1 mRNA relative to untreated control cells (% UTC). The modified oligonucleotides with percent control values marked with an asterisk (*) target the amplicon region of the primer probe set. Additional assays may be used to measure the potency and efficacy of the modified oligonucleotides targeting the amplicon region.
The newly designed modified oligonucleotides in the Tables below were designed as 3-10-3 cEt gapmers. The gapmers are 16 nucleosides in length, wherein the central gap segment comprises of ten 2′-deoxynucleosides and is flanked by wing segments on the 5′ direction and the 3′ direction comprising three nucleosides each. Each nucleoside in the 5′ wing segment and each nucleoside in the 3′ wing segment has a cEt sugar modification. The internucleoside linkages throughout each gapmer are phosphorothioate (P═S) linkages. All cytosine residues throughout each gapmer are 5-methylcytosines.
“Start site” indicates the 5′-most nucleoside to which the gapmer is targeted in the human gene sequence. “Stop site” indicates the 3′-most nucleoside to which the gapmer is targeted human gene sequence. […] Activity of the modified oligonucleotide may be defined in a different experiment.

Substance | YAP1 (% UTC)
958392 (antisense k[5mC]*kT*kA*dT*dG*dA*dG*dT*d[5mC]*dA*dA*d[5mC]*d[5mC]*kT*kG*k[5mC]) [Compound 958392] | 50
958384 (antisense k[5mC]*k[5mC]*kT*dT*d[5mC]*d[5mC]*dT*d[5mC]*dT*dG*d[5mC]*dG*d[5mC]*kG*k[5mC]*k[5mC]) [Compound 958384] | 131
958364 (antisense k[5mC]*kA*kT*dG*dT*dT*dG*dT*dT*dG*dT*d[5mC]*dT*kG*kA*kT) [Compound 958364] | 19

same assay, conditions: Table 9; A-431 cells, 5,000 cells per well, free uptake, 2,000 nM, approximately 48 hours; RTS36584; normalized to RIBOGREEN; Yap1 mRNA relative to untreated control cells

Substance | YAP1 (% UTC)
958636 (antisense k[5mC]*k[5mC]*kG*d[5mC]*dA*d[5mC]*d[5mC]*dG*d[5mC]*dG*dG*d[5mC]*d[5mC]*k[5mC]*kG*kG) [Compound 958636] | 126
958731 (antisense kG*k[5mC]*kT*d[5mC]*dT*dG*dT*d[5mC]*dA*dG*dT*dT*dA*kT*k[5mC]*k[5mC]) [Compound 958731] | 7
958611 (antisense kG*kA*kG*d[5mC]*dA*dT*dG*d[5mC]*dT*d[5mC]*dT*dT*dA*k[5mC]*kA*kT) [Compound 958611] | 92

same assay, conditions: Table 10; A-431 cells, 5,000 cells per well, free uptake, 2,000 nM oligonucleotide, approx. 48 hours; primer probe set RTS36584; Yap1 mRNA normalized to RIBOGREEN, percent of untreated control

Substance | YAP1 (% UTC)
958697 (antisense k[5mC]*kT*kA*dA*dA*dG*dA*dT*dG*dA*d[5mC]*dT*dA*k[5mC]*kT*kG) [Compound 958697] | 39
958462 (antisense kA*k[5mC]*kT*dG*dG*d[5mC]*dT*dA*d[5mC]*dG*d[5mC]*dA*dG*kG*kG*k[5mC]) [Compound 958462] | 46
958657 (k[5mC]*kA*kG*dT*dA*dT*dA*dA*dT*dA*dT*d[5mC]*d[5mC]*kT*kA*kA; antisense) [Compound 958657] | 37
958642 (antisense kG*kA*k[5mC]*dA*dT*d[5mC]*dA*dA*dT*dT*dT*d[5mC]*dA*kG*kT*k[5mC]) [Compound 958642] | 91
958702 (antisense kT*kG*kA*dT*dG*dT*d[5mC]*dT*dT*dG*dT*d[5mC]*d[5mC]*kA*kG*kA) [Compound 958702] | 16

same assay, conditions: Table 11; A-431 cells, 5,000 cells per well, free uptake, 2,000 nM oligonucleotide, approx. 48 hours; primer probe set RTS36584; Yap1 mRNA normalized to RIBOGREEN, percent of untreated control

Substance | YAP1 (% UTC)
958618 (antisense kA*kG*k[5mC]*d[5mC]*dA*dA*dG*dA*dG*dG*dT*dG*dG*kT*k[5mC]*kT) [Compound 958618] | 36
958453 (antisense kG*k[5mC]*k[5mC]*dT*d[5mC]*dA*dT*dG*dG*dG*d[5mC]*dA*d[5mC]*kG*kG*kT) [Compound 958453] | 70
958608 (antisense kT*kG*kA*dT*dA*dG*dG*d[5mC]*dA*d[5mC]*dA*d[5mC]*d[5mC]*k[5mC]*kA*k[5mC]) [Compound 958608] | 11

same assay, conditions: Table 12; A-431 cells, 5,000 cells per well, free uptake, 2,000 nM modified oligonucleotide, approx. 48 hours; RTS36584; normalized to RIBOGREEN; Yap1 mRNA relative to untreated control cells

Substance | YAP1 (% UTC)
958769 (antisense k[5mC]*kA*kT*dT*dG*d[5mC]*d[5mC]*dA*d[5mC]*dG*dA*dT*d[5mC]*kT*kA*kA) [Compound 958769] | 36
958609 (antisense kT*kG*kA*d[5mC]*dA*dA*dG*dT*dG*dT*dG*d[5mC]*dA*kT*kT*kA) [Compound 958609] | 16
958489 (kT*kT*k[5mC]*dT*dA*dA*dG*dT*d[5mC]*dT*dG*dA*dG*kT*kA*kT; antisense) [Compound 958489] | 14

same assay, conditions: Table 13; A-431 cells, 5,000 cells per well, free uptake, 2,000 nM modified oligonucleotide, approx. 48 hours; RTS36584; normalized to RIBOGREEN; Yap1 mRNA relative to untreated control cells

Substance | YAP1 (% UTC)
958815 (kG*kG*kG*d[5mC]*dG*dA*dG*dG*dA*dG*dA*d[5mC]*dA*kG*kG*kT; antisense) [Compound 958815] | 16
958770 (antisense kA*k[5mC]*kA*dG*dA*dG*d[5mC]*dG*dG*dT*dG*d[5mC]*dA*k[5mC]*k[5mC]*k[5mC]) [Compound 958770] | 64

same assay, conditions: Table 26; Yap1 mRNA by 3-10-3 cEt gapmers targeting SEQ ID NO.: 1, and 2; percent of untreated control

Substance | YAP1 (% UTC)
1075244 (kA*k[5mC]*k[5mC]*d[5mC]*dA*dA*dA*dA*dA*dT*dT*d[5mC]*dT*kG*kT*kG; antisense) [compound 1075244] | 76
1074220 (antisense kA*kA*kT*dG*dA*dG*d[5mC]*dT*d[5mC]*dG*dA*dA*d[5mC]*kA*kT*kG) [compound 1074220] | 22
1074892 (k[5mC]*kT*kG*dA*dA*dG*dT*dT*dT*dA*dG*d[5mC]*d[5mC]*kT*kG*kA; antisense) [compound 1074892] | 42

same assay, conditions: Table 27; Yap1 mRNA by 3-10-3 cEt gapmers targeting SEQ ID NO.: 1, and 2; percent of untreated control

Substance | YAP1 (% UTC)
1076173 (k[5mC]*kA*kA*dT*dA*dT*dA*dT*d[5mC]*d[5mC]*dT*dG*dA*kG*kA*kT; antisense) [compound 1076173] | 91
1074861 (kT*kG*k[5mC]*dT*d[5mC]*dT*dT*dA*d[5mC]*dA*dT*d[5mC]*dT*kA*kA*kA; antisense) [compound 1074861] | 23
1075437 (antisense kT*kA*kT*dT*dA*dG*dT*dA*d[5mC]*dG*dA*dG*d[5mC]*kT*kA*k[5mC]) [compound 1075437] | 85
1074893 (antisense kG*k[5mC]*kT*dG*dA*dA*dG*dT*dT*dT*dA*dG*d[5mC]*k[5mC]*kT*kG) [compound 1074893] | 78
1074605 (DNA kT*k[5mC]*kA*dA*d[5mC]*dT*dA*d[5mC]*d[5mC]*dA*dA*dT*dA*kT*kA*k[5mC]) [compound 1074605] | 20
1074797 (kA*k[5mC]*kT*d[5mC]*d[5mC]*dA*dA*dA*dT*d[5mC]*dA*dA*dT*kG*kT*kG; antisense) [compound 1074797] | 31

same assay, conditions: Table 28; Yap1 mRNA as percent of untreated control; 3-10-3 cEt gapmers targeting SEQ ID NO.: 1, and 2

Substance | YAP1 (% UTC)
1075790 (kT*k[5mC]*kA*dG*dA*dA*dG*dA*dA*d[5mC]*dT*d[5mC]*d[5mC]*k[5mC]*kA*kT; antisense) [compound 1075790] | 14
1074702 (antisense kG*kG*kT*dG*dT*dA*dA*dG*dA*d[5mC]*dA*dA*dG*kT*k[5mC]*kT) [compound 1074702] | 16
1075950 (antisense kT*kG*kA*d[5mC]*dA*dA*dT*dA*d[5mC]*d[5mC]*dT*dT*d[5mC]*k[5mC]*kT*kA) [compound 1075950] | 30

same assay, conditions: Table 29; Yap1 mRNA as percent of untreated control; 3-10-3 cEt gapmers targeting SEQ ID NO.: 1, and 2

Substance | YAP1 (% UTC)
1074735 (kG*kA*kT*d[5mC]*dA*dA*dA*dG*d[5mC]*dA*d[5mC]*dT*dG*kT*kG*k[5mC]; antisense) [compound 1074735] | 117
1075503 (kG*k[5mC]*kT*dG*dA*dA*dA*dA*dA*dG*dG*dG*d[5mC]*kT*kT*kA; antisense) [compound 1075503] | 66

same assay, conditions: Table 34; Yap1 mRNA as percent of untreated control; 3-10-3 cEt gapmers targeting SEQ ID NO: 1 and 2; single dose

Substance | YAP1 (% UTC)
1075700 (kG*k[5mC]*k[5mC]*dA*dA*dA*dT*dA*dA*dG*dA*dG*dG*kT*kA*kG; antisense) [compound 1075700] | 22
1075028 (antisense kA*kA*kA*dA*dA*dT*d[5mC]*dA*dA*dG*d[5mC]*d[5mC]*d[5mC]*kT*k[5mC]*kG) [compound 1075028] | 103
1076116 (kG*kA*kA*dA*dA*dT*dA*dG*d[5mC]*d[5mC]*d[5mC]*dA*dT*kT*kA*kG; antisense) [compound 1076116] | 25
1075540 (kG*k[5mC]*kT*dT*dA*dA*dG*dG*dG*dA*dT*dG*dG*kA*kA*k[5mC]; antisense) [compound 1075540] | 78

same assay, conditions: Table 35; Yap1 mRNA as percent of untreated control; 3-10-3 cEt gapmers targeting SEQ ID NO: 1 and 2; single dose

Substance | YAP1 (% UTC)
1076053 (kT*kA*k[5mC]*d[5mC]*dA*dA*d[5mC]*dA*dA*dG*dG*d[5mC]*dA*kT*k[5mC]*kA; antisense) [compound 1076053] | 55
1075413 (antisense k[5mC]*kA*kT*dA*dA*d[5mC]*dT*dA*d[5mC]*dA*dT*d[5mC]*dG*kA*k[5mC]*kA) [compound 1075413] | 34
